US20250128203A1, “MODIFIED REDOX-ACTIVE SORBENTS FOR ELECTROCHEMICAL CARBON DIOXIDE SEPARATION” (The Johns Hopkins University, priority 2023, published 2025)
“And” between values parts separate entries of the source, which are not always exact repeats. Equal entries are not always repeated. Where two headings read alike, the source gives them in different places.

What was measured:
[1] = Cyclic voltammetry of isoindigos in DMF (half-wave redox potentials under N2 or CO2); format: physicochemical; conditions: 2.5 mM in DMF; for E1/2 in N2 (first): first half-wave potential vs. Fc^+/Fc; for E1/2 in N2 (first) / E1/2 in N2 (second): 0.1 M NBu4PF6, N2, 298 K; for E1/2 in N2 (second) / E1/2 in CO2 (second): second half-wave potential vs. Fc^+/Fc; for E1/2 in CO2 (first or single): vs. Fc^+/Fc; for E1/2 in CO2 (first or single) / E1/2 in CO2 (second): 0.1 M NBu4PF6, CO2, 298 K
Procedure: (§1) Electrochemical measurements were conducted using a BioLogic VSP potentiostat (BioLogic Science Instruments). For the cyclic voltammetry measurements, glassy carbon (Ø=3 mm) was used as the working electrode, platinum wire was used as the counter electrode, silver wire was used as the pseudo-reference electrode and ferrocene was used as the internal reference. In a standard cyclic voltammetry measurement, the molecule of interest (2.5 mM) was dissolved in anhydrous DMF with 100 mM NBu4PF6 as the supporting salt. Typical cyclic voltammograms were collected at a scan rate of […]. To study the effects of ionic species on the redox behaviour of the sorbent molecules, 100 mM LiClO4, NaClO4, KClO4, NBu4ClO4, sodium triflate (NaOTf), or sodium bis(trifluoromethanesulfonyl)imide (NaTFSI) was used as the supporting electrolyte salt.

[2] = CO2 binding constant (KCO2) calculated from the shift of the second reduction peak in CV; conditions: for K[CO2] / logK[CO2]: DMF, 298 K; for ΔEpeak(2): difference between the second reduction peak potentials (IId·−/IId2−) in CO2 and N2
Procedure: as §1
The CO2 binding constant (KCO2) was calculated by Eq 1: […]

[3] = UV-vis absorption, optical band gap; format: physicochemical; conditions: UV-vis absorption (Kubelka-Munk spectra)
Procedure: UV-vis absorption spectra were recorded on a Thermo Scientific Genesys 10S UV-vis spectrophotometer.

[4] = DMF, cited from earlier work; for E1/2 (1) in CO2: first half-wave potential; for E1/2 (1) in CO2 / E1/2 (2) in CO2 / E1/2 (2) in N2: vs. Fc^+/Fc; for E1/2 (1) in CO2 / E1/2 (2) in CO2: under CO2; for E1/2 (2) in CO2 / E1/2 (2) in N2: second half-wave potential; for E1/2 (2) in N2: under N2

Structure (SMILES)	E1/2 in N2 (first) [1]	E1/2 in N2 (second) [1] [V]	E1/2 in CO2 (first or single) [1]	K[CO2] [2] [M⁻¹]	logK[CO2] [2]	ΔEpeak(2) [2] [V]	Optical band gap [3] [eV]	E1/2 in CO2 (second) [1] [V]	logKCO2 [4]	E1/2 (1) in CO2 [4] [V]	E1/2 (2) in CO2 [4] [V]	E1/2 (2) in N2 [4] [V]	logKCO2 ([4]; listed as anthraquinone)
O=C1Nc2ccccc2/C1=C1\C(=O)Nc2cc(Br)ccc21 [6BIId, 6-Bromoisoindigo]	−1.21, V	−1.75	−1.14 V	6.25e+09	9.8	0.538	2.05	–	–	–	–	–	–
COC(=O)c1ccc2c(c1)NC(=O)/C2=C1/C(=O)Nc2ccc([N+](=O)[O-])cc21 [5N6MCIId, Methyl-5-nitroisoindigo-6-carboxylate]	−0.93 V and −0.93, V	−1.40	−0.94, V	41500	4.62	0.232	2.08	−1.15	–	–	–	–	–
O=C1C=CC(=O)C=C1 [BQ]	–	–	–	–	–	–	–	–	18.12	−0.95	−0.95	−1.98	–
CCCCC(CC)CN1C(=O)/C(=C2/C(=O)N(CC(CC)CCCC)c3ccccc32)c2ccccc21 (centres unmarked) [NNDEHIId, N,N′-Di-(2-ethylhexyl)-isoindigo]	−1.23, V	−1.80	−1.16, V	4.19e+06	6.62	0.350	2.00	−1.45	–	–	–	–	–
O=C1C(Cl)=C(Cl)C(=O)c2ccccc21 [p-NQ-Cl2]	–	–	–	–	–	–	–	–	2.73	−0.9	−1.63	−1.75	–
COC(=O)c1ccc2c(c1)NC(=O)/C2=C1/C(=O)Nc2cc(Br)ccc21 [6B6MCIId, Methyl 6-bromoisoindigo-6′-carboxylate]	−1.05, V	−1.55	−1.05 V	8.34e+08	8.92	0.486	2.02	–	–	–	–	–	–
O=C1C=C(Cl)C(=O)C(Cl)=C1 [BQ-Cl2]	–	–	–	–	–	–	–	–	1.86	−0.7	−1.59	−1.66	–
O=C1c2ccccc2C(=O)c2ccccc21 [AQ, anthraquinone]	–	–	–	–	–	–	–	–	13.39	−1.4	−1.4	−2.15	approximately 13.4
COc1ccc2c(c1)/C(=C1\C(=O)Nc3ccc([N+](=O)[O-])cc31)C(=O)N2 [5M5NIId, 5-Methoxyl-5′-nitroisoindigo]	−1.08 V and −1.08, V	−1.55	−1.08 V	4.45e+08	8.65	0.470	1.71	–	–	–	–	–	–
O=C1Nc2ccccc2/C1=C1\C(=O)Nc2ccc([N+](=O)[O-])cc21 [5NIId, 5-Nitroisoindigo]	−1.08 V and −1.08, V	−1.57	−1.08 V	7.63e+08	8.88	0.484	2.07	–	–	–	–	–	–
O=C1C(Cl)=C(Cl)C(=O)C(Cl)=C1Cl [BQ-Cl4]	–	–	–	–	–	–	–	–	1.28	−0.48	−1.38	−1.42	–
